Results from patent US4999344A, “Phosphatidyl treatment of rapidly proliferating cells” (priority 1988, dated 1991).

Assays:
N4TG1 = test: Liposomal uptake by normal and tumor cells; format: cell-based, mouse; details: tumor cells N4TG1
Method: (§1) Thymidine uptake is a method of assessing cell viability of cultured cells, and decreased thymidine uptake occurs as a result of cytotoxicity caused by contact with toxic substances. , MRC-5 normal embryonic lung fibroblasts; , W1-38SV/40 transformed embryonic human lung fibroblasts; .quadrature..quadrature., SK-N-MC human glioblastoma cells and , N4TG1 mouse neuroblastoma cells.
(§2) Cells were treated with liposomes containing synthetic preparations of PI (left frames) or PC (right frames) containing palmitic acid in the sn-1 position and either [^14 C]linoleic acid in the sn-2 position (FIGS. 5 and 5a) or [^14 C]arachidonic acid in the sn-2 position (FIGS. 6 and 6a) or [^14 C]oleic acid in the sn-2 position (FIGS. 7 and 7a). The liposomes were comprised of the indicated phospholipids (PI or PC) and cholesterol in a molar ratio of 2:1.
(§3) The data in Table 5 was obtained concomitantly with the toxicity studies in FIGS. 5-7a.

SK-N-MC = test: Liposomal uptake by normal and tumor cells; format: cell-based, human; details: tumor cells SK-N-MC
Method: as §1, §2, §3

WI-38/SV-40 = test: Liposomal uptake by normal and tumor cells; format: cell-based, human
Method: as §1, §2, §3

[1] = test system: N4TG1 neuroblastoma cells; test: Thymidine uptake (cell viability) by N4TG1 neuroblastoma cells incubated with liposomes; format: cell-based, mouse
Method: Plant PI(S) is from the Sigma Chemical Company and plant PI(A) is from Avanti Polar Lipids, Inc. and ([^14 C]linoleoyl)PI is the synthetic PI.
FIGS. 3a and 3b show the effect of increasing the molar fraction of synthetic PI or animal PI in liposomes on (a) thymidine uptake (FIG. 3a) and myo-inositol uptake (FIG. 3b) by N4TG1 neuroblastoma cells, .circle. 100 μm PI, 200 μm PI, 300 μm PI. Cells were incubated with liposomes made up of the various combinations indicated (mol %) of ([^14 C]linoleoyl)PI and animal PI.
FIGS. 9a, b, c, and d show the effect of inhibitors on PI toxicity to tumor cells.
(§4) Lipids were dried and resuspended exactly as described previously in the Biochem. Biophys. Res. Commun. article. In the use of ([^14 C]linoleoyl)PI, ([^14 C]oleoyl)PI, or ([^14 C]arachidonoyl)PI the phospholipids were used in a 2:1 molar combination with cholesterol. Cholesterol was included in the liposomes in order to minimize the net transfer of cholesterol into or out of the cells. ([^3 H]myo-Inositol)PI was used as a tracer (1%) with bovine liver PI as the bulk phospholipid carrier for forming liposomes. [^3 H]Linoleic acid was used as a tracer (4%) in liposomes containing linoleic acid:PI (yeast or animal): cholesterol, 2:1. It was shown that it is not necessary to have cholesterol present to observe the cytotoxicity.
The N4TG1 mouse neuroblastoma cell line was obtained from Dr. Peter Chiang (Walter Reed Army Institute of Research) and cultured using Dulbecco's minimal essential medium (MEM: Grand Island Biological Co.) containing 10% fetal bovine serum. Cells were routinely started from frozen cultures every 6 weeks in order to assure that the cells used were from low passage cultures.
[methyl-^3 H]Thymidine (New England Nuclear) incorporation was carried out using 96-well plates (Costar). Thymidine incorporation was used as an assay for cell viability, since in the previous studies described in the Biochem. Biophys. Res. Commun. (1983) article, other methods of assessing cell viability, including microscopic evaluation in the presence of trypan blue, gave identical results. Fifty μl of cell suspension (4×10^5 cells/ml) were added to duplicate wells. Approximately 18 hours later 25 μl of the PI-containing liposomes were added to give a final concentration of phospholipid of 200 μM (approximately, 14 nmol/2-3×10^4 cells). At various intervals after PI addition [^3 H]thymidine, 1 μCi/well was added and incubated with the cells for 3 hours. Cells were collected on glass fiber filter mats by a mechanical cell harvester (Skatron, Inc.) using a combination of scraping and fluid turbulence (saline). Filters were dried and the material was solubilized by incubation overnight with NCS tissue solubilizer and counted in the presence of Spectrafluor (Amersham).
In FIGS. 1 and 2 the curves were quite reproducible and representative experiments are shown. Because of fluctuations (<5%) in control values, the data were "normalized" by comparison with daily controls and expressed as "percentage of control in absence of PI." Typical values for uptake of [^3 H]thymidine by controls are shown in the inserts in FIGS. 1 and 2.

HT-144 = test: Liposomal uptake by normal and tumor cells; format: cell-based, human; details: tumor cells HT-144
Method: as §2, §3

MRC-5 = test: Liposomal uptake by normal and tumor cells; format: cell-based; details: normal cells MRC-5
Method: as §1, §2, §3

[2] = test system: N4TG1 neuroblastoma cells; test: Cellular uptake of linoleic acid from liposomes (tracer 3H-linoleic acid); format: cell-based, mouse
Text: as §4
Cellular uptake of linoleic acid was calculated based on uptake of tracer ^3 H-linoleic acid. In Table 1 intracellularly generated free fatty acids occurred at a concentration of 2.2 nmol/8×10^5 cells. […] In the case of liposomes containing yeast PI as the phospholipid, the uptake of linoleic acid was 2.9 nmol/8×10^5 cells and the thymidine incorporation had decreased to 53% of control values. Although toxicity occurred at similar concentrations of fatty acids as were generated intracellularly it must be kept in mind that in the experiment in Table 2 there were also extracellular free fatty acids which could exert effects on the outer surface of the cells.

[3] = test system: N4TG1 neuroblastoma cells; test: Effect on cells by linoleic acid in liposomes made of non-cytotoxic phospholipids (thymidine uptake); format: cell-based, mouse
Text: as §4
The N4TG1 mouse neuroblastoma cell line was obtained from Dr. Peter Chiang (Walter Reed Army Institute of Research) and cultured using Dulbecco's minimal essential medium (MEM: Grand Island Biological Co.) containing 10% fetal bovine serum. […]
[methyl-^3 H]Thymidine (New England Nuclear) incorporation was carried out using 96-well plates (Costar). […] Filters were dried and the material was solubilized by incubation overnight with NCS tissue solubilizer and counted in the presence of Spectrafluor (Amersham). […]
Cellular uptake of linoleic acid was calculated based on uptake of tracer ^3 H-linoleic acid. […]

[4] = test system: N4TG1 neuroblastoma cells; test: Fate of liposomal PI after incubation with N4TG1 neuroblastoma cells; format: in vitro ADME, mouse
Text: as §4, with “It was shown that it is not necessary to have cholesterol present to observe the cytotoxicity.” left out
In order to extract lipids, methanol and chloroform were added to cell homogenates to obtain a single phase of CHCl3 :CH3 OH:H2 O (1:2:1 8, v/v) containing 0.1M HCl, according to Bligh and Dyer in Can. […] The lipid compositions of the cell extracts were determined by thin layer chromatography on silica gel precoated sheets (E. M. Reagents; E. Merck, FRG) using the following solvent systems: (a) chloroform:methanol: acetic acid:water, 25:15:4:2 (v/v) (used for phospholipid separation): (b) 1-propanol:4.3M ammonia containing 10 mM EDTA, 65:35 (v/v) (used for PIP and PIP2 separations); and (c) chloroform:acetone, 1:1 (v/v) (used for DG and fatty acid separations). […]

[5] = test system: lung small cell carcinoma cultures (NCI-H128); test: Toxicity to lung small cell carcinoma cultures, based on thymidine uptake, with inhibitors; set-up: species or system human; details: FIGS. 9c and 9d; for blocking of plant PI toxicity / competition: with plant PI
Text: FIGS. 9c and 9d show the effects of inhibitors of phospholipase A2 (quinacrine) or prostaglandin synthesis (eicosanotetraynoic acid) or leukotriene synthesis ([…]) on cytotoxicity induced by liposomes containing plant PI/cholesterol/([^14 C]linoleoyl)PI (2/1/0.01). The NCI-H128 cells are a small cell lung carcinoma cultured cell line
Several specific inhibitors were used with lung small cell carcinoma cultures. […] In humans, this type of lung cancer is fatal very soon after detection.

SMILES	Liposomal uptake (N4TG1)	Liposomal uptake (SK-N-MC)	Liposomal uptake (WI-38/SV-40)	cytotoxicity [1]	Liposomal uptake (HT-144)	Liposomal uptake (MRC-5)	blocking of plant PI toxicity / competition [5]	further results
CCCCCCCC/C=C\CCCCCCC[14C](=O)O[C@H](COC(=O)CCCCCCCCCCCCCCCCC)COP(=O)(O)O[C@@H]1[C@H](O)[C@H](O)[C@@H](O)[C@H](O)[C@H]1O [([^14 C]oleoyl)PI, reference compound]	0.28 nMoles of phospholipid/1 × 10^5 cells	0.28 nMoles of phospholipid/1 × 10^5 cells	0.21 nMoles of phospholipid/1 × 10^5 cells	lacked cytotoxicity	0.28 nMoles of phospholipid/1 × 10^5 cells	0.13 nMoles of phospholipid/1 × 10^5 cells	–	–
CCCCC/C=C\C/C=C\CCCCCCCC(=O)O [Linoleic acid, linoleic acid]	–	–	–	–	–	–	–	uptake of linoleic acid ([2]; 50 μM, Animal Phosphatidylinositol liposomes): 2.55 nmol/8 × 10^5 cells; uptake of linoleic acid ([2]; 50 μM, Yeast Phosphatidylinositol liposomes): 1.8 nmol/8 × 10^5 cells; uptake of linoleic acid ([2]; 100 μM, Animal Phosphatidylinositol liposomes): 3.03 nmol/8 × 10^5 cells; uptake of linoleic acid ([2]; 100 μM, Yeast Phosphatidylinositol liposomes): 2.9 nmol/8 × 10^5 cells; uptake of linoleic acid ([2]; 200 μM, Animal Phosphatidylinositol liposomes): 10.4 nmol/8 × 10^5 cells; uptake of linoleic acid ([2]; 200 μM, Yeast Phosphatidylinositol liposomes): 14.8 nmol/8 × 10^5 cells; decrease in thymidine incorporation compared with controls ([3]; liposomes with animal PI, uptake 2.55 nmol/8×10^5 cells): 63%; thymidine incorporation ([3]; liposomes with yeast PI, uptake 2.9 nmol/8×10^5 cells): 53 % of control values
CCCCC/C=C\C/C=C\C/C=C\C/C=C\CCC[14C](=O)O[C@H](COC(=O)CCCCCCCCCCCCCCCCC)COP(=O)(O)O[C@@H]1[C@H](O)[C@H](O)[C@@H](O)[C@H](O)[C@H]1O [([^14 C]arachidonoyl)PI]	0.49 nMoles of phospholipid/1 × 10^5 cells	0.39 nMoles of phospholipid/1 × 10^5 cells	0.33 nMoles of phospholipid/1 × 10^5 cells	considerable cytotoxicity	0.55 nMoles of phospholipid/1 × 10^5 cells	0.09 nMoles of phospholipid/1 × 10^5 cells	–	Phosphatidylcholine [4]: Not Detected
CCCCCC#CCC#CCC#CCC#CCCCC(=O)O [eicosanotetraynoic acid]	–	–	–	–	–	–	relatively little promise of blocking the toxicity of plant PI	–
CCN(CC)CCCC(C)Nc1c2ccc(Cl)cc2nc2ccc(OC)cc12 (stereo not drawn) [Quinacrine, quinacrine, reference compound]	–	–	–	–	–	–	No competition was observed	effect of quinacrine on cytotoxicity of plant PI ([1]; in conjunction with plant PI, FIG. 9b): reversal of cytotoxicity; cytotoxicity of quinacrine alone ([1]; tumor or normal cells, FIG. 9a): somewhat cytotoxic; toxicity [5]: extremely toxic
COc1ccc2c(c1)c(CC(=O)O)c(C)n2C(=O)c1ccc(Cl)cc1 [indomethecin, indomethacin]	–	–	–	–	–	–	relatively little promise of blocking the toxicity of plant PI	–
